The text below walks through data of PubChem BioAssay AID179 (DTP/NCI, 2004).

In this assay the test system is CEM cells HIV-1 protection, formazan growth assay. As to the kind of experiment: NCI AIDS Antiviral Assay. The following applies: for pIC50: measured here: growth of uninfected CEM cells. The method, boiled down: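 Human CEM cells, uninfected and HIV-1-infected, exposed to five drug concentrations; growth measured by soluble formazan assay and scored as percent protection from infection, with protecting compounds retested.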

Molecules are shown by their SMILES. pEC50, pIC50: −log10 of the molar value. Calls of active or inactive are those of the source.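 Rule for the calls: active = compounds giving half or more protection of infected cells from virus-caused growth loss, again on retest; inactive = the rest.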 Where a SMILES comes first, the peptide text is derived from it. [ ]: non-standard residue; d: D form. The star is where a group is joined. Hyp = O=C(O)[CH]1C[CH](O)CN1; Cbz = O=C(OCc1ccccc1)*

The pEC50 is the negative decadic logarithm of the EC50, by convention in mol/L. Usually pIC50 stands for −log10 of the IC50, conventionally taken in molar units. The low end stands for a high IC50, the high end for a low IC50.

As to `Cn1c(=O)c2c(nc3n(Cc4ccccc4)c(=O)c(NCCCBr)cn23)n(C)c1=O`, the pEC50 was 4.51 and the pIC50 was 4.38.

Turning to `Cn1c(O)c(C=Nc2ccccc2Cl)c(=O)n(C)c1=O`, the result was inactive.

Turning to `COc1ccc2c(OC)c3ccoc3nc2c1O`, the pEC50 is under 4.30 and the pIC50 was 4.49.

In the case of `NC(=O)CNC(=O)C1CC(O)CN1C(=O)C1CCCN1C(=O)OCc1ccccc1` (stereo not drawn) (Cbz-Pro-[Hyp]-Gly-NH2; configuration not given here), the pEC50 was under 3.70 and the pIC50 was under 3.70.

As to `COc1cccc(C2c3cc4c(cc3OC(NNC(N)=O)C2C)OCO4)c1O` (centres undefined), the pEC50 is under 3.70 and the negative logarithm of the IC50 (pIC50) was 5.95.

In the case of `CCOC(=O)C1N=[N+](c2ccccc2)C(=O)/C1=C\n1c(=S)[nH]c2ccc([N+](=O)[O-])cc21` (centres undefined), the pEC50 is under 3.70 and the pIC50 was 3.97.

For `COC(=O)Cc1c2c3n(c(=O)c1-n1[nH]c(=O)n(-c4ccc(Cl)cc4)c1=O)CCN3CCC2`, the pEC50 is under 3.70 and the pIC50 is under 3.70.

With `O=C(Nc1ccc(S(=O)(=O)c2ccc(NC(=O)c3cc(S(=O)(=O)O)ccc3O)cc2)cc1)c1cc(S(=O)(=O)O)ccc1O` (tested in a mixture with another compound), the pEC50 was 3.79 and the pIC50 is under 3.70.

Take `COc1ccc(C2S/C(=C\c3cccc([N+](=O)[O-])c3)C(=O)N2NC(=O)Cc2ccccc2)cc1` (centres undefined): the pEC50 is under 4.40 and the pIC50 is under 4.40.

`CCCOC1OC(CS(=O)(=O)O)C(OC(C)=O)C(OC(C)=O)C1OC(C)=O` (centres undefined): the result was inactive.

For `O=C1CC[C@@]23CC(=O)O[C@@H]2CCCC3C1` (some centres undefined), the result was inactive.

In the case of `CC(=O)Nc1ccccc1NC1CC(C)N(c2ccccc2)N1C(C)=O` (centres undefined), the pEC50 is under 3.70 and the pIC50 is 4.49.

In the case of `Cc1ccc(N2C(=O)N(c3ccc(C)cc3)C3(Sc4ccccc4N3C)C2=O)cc1` (centres undefined), the pEC50 is under 4.90 and the pIC50 was under 4.90.

In the case of `CC(C)(C)c1cc2c(O)c(c1)COCc1cc(C(C)(C)C)cc(c1O)COCc1cc(C(C)(C)C)cc(c1O)COC2`, the pEC50 was under 3.70 and the pIC50 is 3.84.

In the case of `O=P1(Nc2ccc(/C=C3\C=Cc4ccccc43)cc2)NCCCO1` (centres undefined), the pEC50 is under 4.40 and the negative logarithm of the IC50 (pIC50) is 4.64.

As to `Cc1ccc(/C([O-])=C(\C(=S)Nc2cccc(C(F)(F)F)c2)[n+]2ccccc2)cc1`, the pEC50 is under 3.70 and the pIC50 is 4.05.

For the compound `C=C(C(=O)OC)c1cc2ccccc2n1S(=O)(=O)c1ccccc1`, the pEC50 was under 4.70 and the negative-log IC50 (pIC50) is 5.52.

On to `CC(C)(C)C(C#N)(C#N)c1ccc(C(C#N)(C#N)C(C)(C)C)nn1`, for which the outcome was inactive.

For `Nc1ccnc2c1ncn2[C@H]1C[C@H](O)[C@@H](CO)O1`, the pEC50 was under 3.70 and the pIC50 was under 3.70.

With `CC(C)N(C(=O)C12C3C4C1C1C2C3C41I)C(C)C` (centres undefined), the pEC50 is under 3.72 and the pIC50 is under 3.72.

Take `N.N.O=N[O-].O=N[O-].O=N[O-].O=N[O-].[Co+3].[Cs+]`: the outcome was inactive.

Take `O=C1NC(=S)SC1N=Nc1ccc(S(=O)(=O)Nc2ncccn2)cc1` (centres undefined): the pEC50 is under 3.70 and the pIC50 is under 3.70.

With `CC(=O)N(C)c1ccc(N=CN(C)C)cc1`, the pEC50 is under 3.70 and the pIC50 is under 3.70.

As to `COc1ccc(-n2c(C)nc3ccc(NC(=S)Nc4ccccc4)cc3c2=O)cc1`, the pEC50 was under 3.70 and the pIC50 is under 3.70.

Regarding `CC(C)(C)C1CCC(=O)C(C(O)CC2CC(=O)N(c3ccccc3)C(=O)C2)C1` (centres undefined), the pEC50 was under 3.70 and the pIC50 was under 3.70.

For the compound `CCSCCCCCCCCCCC(=O)OCC1OC(n2cc(C)c(=O)[nH]c2=O)CC1N=[N+]=[N-]` (centres undefined), the pEC50 is 7.32 and the pIC50 was 4.31.

`O=Nc1ccc(O)cc1O`: the pEC50 was under 3.70 and the pIC50 is 3.83.
